PMC10671052, “Naphthyl-Substituted Indole and Pyrrole Carboxylic Acids as Effective Antibiotic Potentiators—Inhibitors of Bacterial Cystathionine γ-Lyase” (International Journal of Molecular Sciences, 2023)

Experiments:
[1] = molecular target: S. aureus cystathionine-γ-lyase (bCSE) (Staphylococcus aureus, UniProt A0A0H3K724); experiment: IC50 assay: inhibition of H2S production by purified bCSE, WSP5 fluorescent probe; type: biochemical
How it was run: (§1)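 Purified recombinant enzyme (0.02 μM; E. coli-expressed) preincubated 40 min at 30 °C with inhibitor in 50 mM sodium phosphate pH 8.0, 10 μM PLP, 0.1% Tween 20 and 1.2 μM WSP-5. Started with 100 μM L-cysteine; H2S fluorescence (ex 500/em 530 nm) followed 12 h. IC50 from four-parameter fit, mean of ≥2 experiments.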

[2] = molecular target: T1, human cystathionine-γ-lyase (hCSE) (Homo sapiens, UniProt P32929); experiment: IC50 assay: inhibition of H2S production by purified hCSE, WSP5 fluorescent probe; type: biochemical; details: purified hCSE 0.02 μM, 100 μM L-cysteine, WSP5 probe, mean ± SD; read-out: IC50 biochemical assay hCSE
T1 construct: His6-TEV (N, cleaved yes); host or cells: E. coli
T1 sequence (P32929 whole entry): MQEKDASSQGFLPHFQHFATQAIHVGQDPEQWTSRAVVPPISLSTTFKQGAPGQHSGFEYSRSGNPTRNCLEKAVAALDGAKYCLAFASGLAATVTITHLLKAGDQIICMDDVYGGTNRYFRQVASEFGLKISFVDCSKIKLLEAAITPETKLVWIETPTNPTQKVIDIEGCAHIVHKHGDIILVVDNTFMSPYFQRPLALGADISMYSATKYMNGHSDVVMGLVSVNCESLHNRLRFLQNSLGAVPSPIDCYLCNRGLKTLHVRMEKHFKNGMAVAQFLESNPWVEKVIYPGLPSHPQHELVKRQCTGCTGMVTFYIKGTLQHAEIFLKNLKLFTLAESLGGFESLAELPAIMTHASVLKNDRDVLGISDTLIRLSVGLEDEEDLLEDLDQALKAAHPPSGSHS
How it was run: as §1

Caco-2 cell permeability = type: in vitro ADME; details: human
Procedure: (§2) The culture medium consisted of high-glucose DMEM containing 10% of fetal bovine serum, 4 mM L-glutamine, 1% of a solution of nonessential amino acids (PanEco, Moscow, Russia), 100 U/mL penicillin, and 100 μg/mL streptomycin. The cells were maintained for 21 days at 37 °C and 5% CO2. The medium was refreshed every 3 days. A Lucifer yellow rejection assay was applied to determine cell monolayer integrity. […] The Lucifer yellow rejection value was calculated using the equation: LY % rejection = 100*(1−FIb/FIa), where FIb is the fluorescence in the basolateral compartment and FIa is the fluorescence in the apical compartment. […] Both apical-to-basolateral (AB) and basolateral-to-apical (BA) transport were assessed. For apical-to-basolateral transport, 0.3 mL of a test compound solution was added to the apical side, and 0.8 mL of HBSS with 0.5% of BSA was added to the basolateral side. For basolateral-to-apical transport, 0.8 mL of a test compound solution was added to the basolateral side and 0.3 mL of HBSS with 0.5% of BSA was added to the apical side. The Caco-2 cell monolayers were then incubated for 2 h at 37 °C. The pH values of the apical and basolateral compartments were 7.4. […] The supernatant was transferred to a vial and analyzed by liquid chromatography coupled with tandem MS (LC–MS/MS). The AB (or BA) apparent permeability coefficients (Papp, 10^–6 cm/s) were calculated according to the following formula [40, 41]: Papp = (V × ∆C)/(∆t × A × C0), where V is the volume of the receiver compartment (cm^3), C0 is the initial drug concentration in the donor compartment (μM), ∆C is the concentration in the receiver compartment (μM), ∆t is the incubation time (s), and A is the surface area of the cell monolayer (cm^2). An efflux ratio was calculated by dividing Papp (BA) by Papp (AB). All compounds were tested in duplicate.

Caco-2 cell monolayer = experiment: Caco-2 cell permeability; type: in vitro ADME; details: Papp (BA) / Papp (AB); listed as lead compound
Procedure: as §2

in vitro = in vitro ADME; details: human, plasma, pH 7.4, Fraction bound fb
Procedure: Plasma protein binding was assessed using RED device inserts with built-in cellulose acetate dialysis membranes (molecular weight cutoff: 8 kDa). The final concentration of the test compound in human plasma was 5 μM. The samples were prepared by placing 300 μL of human plasma into the plasma compartment of the RED device and 500 μL of phosphate-buffered saline (pH 7.4) into the buffer compartment. The RED device was fixed to a shaker, placed in a CO2 (5%) incubator, and incubated for 6 h at 37 °C. After an equilibration step, 100 μL aliquots were taken from each compartment; 100 μL of plasma was added to the buffer compartment aliquot and 100 μL of buffer was added to the plasma compartment aliquot. After mixing, 600 μL of acetonitrile containing an internal standard was added. […] All compounds were tested in duplicate. Fraction bound fb was determined via the following equation: fb (%) = [1 − (Cb/Cp)] × 100, where Cb is the concentration of an analyte in the buffer compartment (μM), and Cp is the concentration of the analyte in the plasma compartment (μM).

S. aureus cystathionine-γ-lyase (bCSE), sequence (A0A0H3K724 entry or part of it): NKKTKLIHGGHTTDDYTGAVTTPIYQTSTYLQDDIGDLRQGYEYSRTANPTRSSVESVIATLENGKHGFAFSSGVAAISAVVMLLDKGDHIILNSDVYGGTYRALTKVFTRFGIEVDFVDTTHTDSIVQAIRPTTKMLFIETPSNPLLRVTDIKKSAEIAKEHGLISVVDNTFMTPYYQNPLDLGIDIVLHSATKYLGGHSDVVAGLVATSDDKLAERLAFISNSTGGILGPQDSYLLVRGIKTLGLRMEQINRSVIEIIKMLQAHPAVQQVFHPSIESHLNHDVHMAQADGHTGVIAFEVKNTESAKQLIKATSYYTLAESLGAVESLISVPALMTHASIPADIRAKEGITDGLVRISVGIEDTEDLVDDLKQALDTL

O=C(O)c1cc2ccccc2n1Cc1cccc2ccccc12 [Compound 2a]
IC50 ([1]; IC50 (uM), bCSE enzymatic IC50, rounded, repeated in Table S13): 65 µM | IC50 ([1]; IC50 (uM), bCSE enzymatic IC50, rounded, repeated in Table S14): 65 µM | IC50 ([1]; IC50 (uM), bCSE enzymatic IC50, rounded, repeated in Table S15): 65 µM | IC50 ([1]; IC50 biochemical assay bCSE, purified bCSE 0.02 μM, 100 μM L-cysteine, WSP5 probe, mean ± SD): 64.6 ± 3.1 µM | IC50 [2]: 251 ± 16.6 µM | efflux ratio at 2 h, 10 μM (Caco-2 cell permeability; Caco-2, Papp (BA) / Papp (AB)): 1.13 | Papp A→B at 2 h, 10 μM (Caco-2 cell permeability; Caco-2, 10 μM, 2 h, pH 7.4): 43.3 ± 2.8 ×10⁻⁶ cm/s | Papp B→A at 2 h, 10 μM (Caco-2 cell permeability; Caco-2, 10 μM, 2 h, pH 7.4): 49.1 ± 6 ×10⁻⁶ cm/s | Efflux ratio (Caco-2 cell monolayer): less than 2.0 | fraction unbound at 6 h, 5 μM (in vitro): < 0.01
